Patent publication US6376518B1, “Acyl derivatives of 4-demethylpenclomedine, use thereof and preparation thereof” (Southern Research Institute, priority 1999, dated 2002)
Where two headings read alike, the source gives them in different places.

Experiments:
[1] = Anti-cancer activity of precursor compounds
[2] = tested on: human MX-1 mammary tumor; test: In vivo antitumor activity vs s.c.-implanted human MX-1 mammary tumor xenograft in athymic mice; conditions: sc MX-1
[3] = tested on: human MX-1 mammary tumor; test: In vivo antitumor activity vs i.c.-implanted human MX-1 mammary tumor xenograft in athymic mice; conditions: ic MX-1, Days 1-5
[4] = tested on: ZR-75-1 human mammary tumor; test: In vivo antitumor activity vs sc ZR-75-1 xenograft; conditions: for Tumor-Free-Surv/Total: sc ZR-75-1
[5] = tested on: MCF7 human mammary tumor; test: In vivo antitumor activity vs sc MCF7 xenograft
[6] = tested on: UISO-BCA-1 human mammary tumor; test: In vivo antitumor activity vs sc UISO-BCA-1 xenograft; conditions: IP 90 mg/kg/dose, Days 16-20
[7] = tested on: HT29 human colon tumor; test: In vivo antitumor activity vs sc HT29 xenograft
[8] = tested on: NCI-H82 small cell lung tumor; test: In vivo antitumor activity vs sc NCI-H82 xenograft; parameters: species or system human
[9] = tested on: NCI-H460 nonsmall cell lung tumor; test: In vivo antitumor activity vs sc NCI-H460 xenograft; parameters: species or system human; conditions: IP 90 mg/kg/dose, Days 6-10
[10] = tested on: U251 human CNS tumor; test: In vivo antitumor activity vs sc U251 xenograft
[11] = tested on: SF-295 CNS tumor; test: In vivo antitumor activity vs sc SF-295 xenograft; parameters: species or system human; conditions: IP 90 mg/kg/dose, Days 9-13
[12] = tested on: CAKI-1 human renal tumor; test: In vivo antitumor activity vs sc CAKI-1 xenograft
[13] = tested on: OVCAR-5 ovarian tumor; test: In vivo antitumor activity vs sc OVCAR-5 xenograft; parameters: species or system human; conditions: IP 90 mg/kg/dose, Days 12-16
[14] = tested on: SK-MEL-28 melanoma; test: In vivo antitumor activity vs sc SK-MEL-28 xenograft; parameters: species or system human; conditions: IP 90 mg/kg/dose, Days 8-12
[15] = tested on: P388/CPA leukemia; test: Antitumor activity against IP-implanted P388/CPA leukemia in mice; assay type: in vivo, murine; conditions: for 50-DAY SURV/TOTAL / % ILS / APPROX. NET LOG10 CHANGE IN TUMOR BURDEN AT END OF Rx / MEDIAN DAY OF DEATH: P388/CPA, Q1D × 5 (1); for MEDIAN DAY OF DEATH: dying mice only
[16] = tested on: P388/0 leukemia
[17] = tested on: P388/L-PAM leukemia; conditions: for MEDIAN DAY OF DEATH: dying mice only
[18] = tested on: P388/BCNU leukemia; test: Antitumor activity against IP-implanted P388/BCNU leukemia in mice; conditions: for MEDIAN DAY OF DEATH: dying mice only
[19] = sc MCF7, IP 60 mg/kg/dose, Days 14-18
[20] = sc HT29, IP 90 mg/kg/dose, Days 14-18
[21] = sc NCI-H82, IP 60 mg/kg/dose, Days 13-17
[22] = sc CAKI-1, IP 90 mg/kg/dose, Days 19-23
[23] = highest nontoxic doses evaluated, versus DM-PEN
[24] = highest nontoxic doses evaluated, versus PEN
[25] = P388/0, IP 60.0 mg/kg/dose, Q1D × 5 (1)
[26] = P388/0, IP 90.0 mg/kg/dose, Q1D × 5 (1)
[27] = P388/0, IP 135.0 mg/kg/dose, Q1D × 5 (1)
[28] = P388/L-PAM, IP 60.0 mg/kg/dose, Q1D × 5 (1)
[29] = P388/L-PAM, IP 90.0 mg/kg/dose, Q1D × 5 (1)
[30] = P388/L-PAM, IP 135.0 mg/kg/dose, Q1D × 5 (1)
[31] = P388/BCNU, IP 60.0 mg/kg/dose, Q1D × 5 (1)
[32] = P388/BCNU, IP 90.0 mg/kg/dose, Q1D × 5 (1)
[33] = P388/BCNU, IP 135.0 mg/kg/dose, Q1D × 5 (1)

CCOc1c(Cl)c(OC)nc(C(Cl)(Cl)Cl)c1Cl [3,5-dichloro-4-ethoxy-6 methoxy-2-(trichloromethyl) pyridine]
anti-cancer activity (in words) [1]: active anti-cancer activity

COc1nc(C(Cl)(Cl)Cl)c(Cl)c(OC(C)=O)c1Cl [DM-A-PEN]
Tumor-Free-Surv/Total ([2]; IP 60 mg/kg/dose (LD20), Days 15-19): 3/5 | Tumor-Free-Surv/Total ([2]; IP 60 mg/kg/dose, Days 14-18): 4/5 | Dose (mg/kg) with observed lethality level ([2]; IP 60 mg/kg/dose, Days 15-19): 60 (LD20) | T-C ([2]; IP 90 mg/kg/dose, Days 12-16): >41.0 days | Tumor-Free-Surv/Total ([2]; IP 90 mg/kg/dose, Days 12-16): 5/5 | Tumor-Free-Surv/Total ([2]; oral (gavage) 135 mg/kg/dose, Days 13-17): 5/5 | Median % ILS (dying mice only) ([3]; IP 60 mg/kg/dose): +60% | Median % ILS (dying mice only) ([3]; oral (gavage) 135 mg/kg/dose): +88% | activity (in words) ([4]; s.c.-implanted ZR-75-1 human mammary tumor): moderate to modest activity | Tumor-Free-Surv/Total ([4]; IP 60 mg/kg/dose, Days 10-14): 0/5 | Tumor-Free-Surv/Total ([4]; IP 90 mg/kg/dose, Days 8-12): 0/5 | activity (in words) ([5]; s.c.-implanted MCF7 human mammary tumor): moderate to modest activity | T-C [5, 19]: 7.1 days | Tumor-Free-Surv/Total [5, 19]: 0/5 | T-C [6]: -2.4 days | Tumor-Free-Surv/Total [6]: 0/5 | activity (in words) ([7]; s.c.-implanted HT29 human colon tumor): moderate to modest activity | T-C [7, 20]: 5.8 days | Tumor-Free-Surv/Total [7, 20]: 0/5 | activity (in words) ([8]; s.c.-implanted NCI-H82 small cell lung tumor): moderate to modest activity | T-C [8, 21]: 7.2 days | Tumor-Free-Surv/Total [8, 21]: 0/5 | T-C [9]: -0.6 days | Tumor-Free-Surv/Total [9]: 0/5 | activity (in words) ([10]; s.c.-implanted U251 human CNS tumor): moderate to modest activity | Tumor-Free-Surv/Total ([10]; sc U251, IP 90 mg/kg/dose, Days 19-23): 0/5 | T-C [11]: 0.7 days | Tumor-Free-Surv/Total [11]: 0/5 | activity (in words) ([12]; s.c.-implanted CAKI-1 human renal tumor): moderate to modest activity | T-C [12, 22]: 8.4 days | Tumor-Free-Surv/Total [12, 22]: 0/5 | T-C [13]: 4.0 days | Tumor-Free-Surv/Total [13]: 0/5 | T-C [14]: 0.7 days | Tumor-Free-Surv/Total [14]: 0/5 | 50-DAY SURV/TOTAL ([15]; IP 60.0 mg/kg/dose): 0/6 | % ILS ([15]; IP 60.0 mg/kg/dose): +54% | APPROX. NET LOG10 CHANGE IN TUMOR BURDEN AT END OF Rx ([15]; IP 60.0 mg/kg/dose): −1.1 | MEDIAN DAY OF DEATH ([15]; IP 60.0 mg/kg/dose): 17.0 | 50-DAY SURV/TOTAL ([15]; IP 90.0 mg/kg/dose): 0/6 | % ILS ([15]; IP 90.0 mg/kg/dose): +86% | APPROX. NET LOG10 CHANGE IN TUMOR BURDEN AT END OF Rx ([15]; IP 90.0 mg/kg/dose): −3.1 | 50-DAY SURV/TOTAL ([15]; IP 135.0 mg/kg/dose): 0/6 | APPROX. NET LOG10 CHANGE IN TUMOR BURDEN AT END OF Rx ([15]; IP 135.0 mg/kg/dose): −5.7 | MEDIAN DAY OF DEATH ([15]; IP 135.0 mg/kg/dose): 25.0 | more active than DM-PEN against P388/CPA (difference in log cell kill) [15, 23]: 4.6 log cell kill | more active than PEN against P388/CPA (difference in log cell kill) [15, 24]: 7.4 log cell kill | 50-DAY SURV/TOTAL [16, 25]: 0/6 | % ILS [16, 25]: +72% | APPROX. NET LOG10 CHANGE IN TUMOR BURDEN AT END OF Rx [16, 25]: −3.1 | MEDIAN DAY OF DEATH ([16]; P388/0, IP 60.0 mg/kg/dose, Q1D × 5 (1), dying mice only): 19.0 | 50-DAY SURV/TOTAL [16, 26]: 0/6 | % ILS [16, 26]: +95% | APPROX. NET LOG10 CHANGE IN TUMOR BURDEN AT END OF Rx [16, 26]: −5.0 | 50-DAY SURV/TOTAL [16, 27]: 0/6 | % ILS [16, 27]: +159% | APPROX. NET LOG10 CHANGE IN TUMOR BURDEN AT END OF Rx [16, 27]: ~−6.8 | Toxicity / lethality level at the dosage (LD) [16, 27]: LD33 | more active than DM-PEN against P388/O (difference in log cell kill) [16, 23]: 1.9 log cell kill | more active than PEN against P388/0 (difference in log cell kill) [16, 24]: 0.4 log cell kill | 50-DAY SURV/TOTAL [17, 28]: 0/6 | % ILS [17, 28]: +14% | APPROX. NET LOG10 CHANGE IN TUMOR BURDEN AT END OF Rx [17, 28]: +1.2 | MEDIAN DAY OF DEATH [17, 28]: 18.0 | 50-DAY SURV/TOTAL [17, 29]: 0/6 | % ILS [17, 29]: +14% | APPROX. NET LOG10 CHANGE IN TUMOR BURDEN AT END OF Rx [17, 29]: +1.2 | MEDIAN DAY OF DEATH [17, 29]: 18.0 | 50-DAY SURV/TOTAL [17, 30]: 0/6 | % ILS [17, 30]: +35% | APPROX. NET LOG10 CHANGE IN TUMOR BURDEN AT END OF Rx [17, 30]: −0.8 | Toxicity / lethality level at the dosage (LD) [17, 30]: LD17 | MEDIAN DAY OF DEATH [17, 30]: 19.0 | more active than PEN or DM-PEN against P388/L-PAM (difference in log cell kill) ([17]; highest nontoxic doses evaluated, versus PEN or DM-PEN): 0.2-0.3 log cell kill | activity in the P388/L-PAM tumor model (in words) ([17]; mouse, in vivo): none of the three showed significant activity | 50-DAY SURV/TOTAL [18, 31]: 1/6 | % ILS [18, 31]: +44% | APPROX. NET LOG10 CHANGE IN TUMOR BURDEN AT END OF Rx [18, 31]: 0 | MEDIAN DAY OF DEATH [18, 31]: 13.0 | 50-DAY SURV/TOTAL [18, 32]: 0/6 | % ILS [18, 32]: +77% | APPROX. NET LOG10 CHANGE IN TUMOR BURDEN AT END OF Rx [18, 32]: −2.3 | MEDIAN DAY OF DEATH [18, 32]: 16.0 | 50-DAY SURV/TOTAL [18, 33]: 0/6 | APPROX. NET LOG10 CHANGE IN TUMOR BURDEN AT END OF Rx [18, 33]: −4.1 | Toxicity / lethality level at the dosage (LD) [18, 33]: LD17 | MEDIAN DAY OF DEATH [18, 33]: 21.0 | more active than DM-PEN against P388/BCNU (difference in log cell kill) [18, 23]: 1.5 log cell kill | more active than PEN against P388/BCNU (difference in log cell kill) [18, 24]: 3.5 log cell kill

CCOc1nc(C(Cl)(Cl)Cl)c(Cl)c(OCC)c1Cl [3,5-dichloro-4,6-diethoxy-2-(trichloromethyl)pyridine]
anti-cancer activity (in words) [1]: active anti-cancer activity
